Literature values in US8440245B2, “Methods for making nutritional compositions comprising curcuminoids” (priority 2009, dated 2013).

Tests used:
[1] = percentage of ingested curcuminoid actually metabolized by the body
[2] = test system: microtubule assembly; settings: @ 40 μm

| Structure (SMILES) | Metabolic Recovery [1] [%] | Inhibition of Microtubule Assembly [2] [% @] |
| --- | --- | --- |
| O=C(/C=C/c1ccc(O)cc1)CC(=O)/C=C/c1ccc(O)cc1 [BDMC, bisdemethoxycurcumin] | ~75 |  |
| COc1cc(/C=C/C(=O)CC(=O)/C=C/c2ccc(O)c(OC)c2)ccc1O [Curcumin, curcumin] |  | 50 |
| COc1cc(/C=C/C(O)=C/C(=O)/C=C/c2ccc(O)cc2)ccc1O [DMC, demethoxycurcumin] | ~50 |  |
